From patent publication US5250283A, “Organic contrast agent analog and method of making same” (priority 1992, dated 1993)
Where a name gives a salt, the structure may show the parent alone. Read-outs that look alike come from different tables or passages of the source.

Columns and labels:
[1] = Biliary excretion and bile flow after i.v. TFA-IOP (100 umol/kg) or IOP (100 in text, 104 umol/kg in tables) in rats; conditions: rat; for dose excreted at 10 min / dose excreted at 20 min / dose excreted at 0.5 h / dose excreted at 40 min / dose excreted at 50 min / dose excreted at 1 h / dose excreted at 70 min / dose excreted at 80 min / dose excreted at 1.5 h / dose excreted at 0 h: in vivo, iv, 100 umol/kg
Method: Tissues examined included liver, spleen, upper GI, lower GI, kidney, lung and heart. The length of each study was 90 minutes, during which time bile, urine and plasma samples were taken to monitor uptake and excretion. NMR relaxation rates for liver and plasma were also examined to note whether uptake of either compound might possible alter these parameters.

[2] = Plasma concentration after i.v. IOP or TFA-IOP in rats; assay type: in vivo; conditions: rat
[3] = Tissue distribution 90 min after i.v. TFA-IOP (100 umol/kg) or IOP (100 in text, 104 umol/kg in tables) in rats; assay type: in vivo; conditions: rat; for concentration at 1.5 h / tissue uptake at 1.5 h: iv; for concentration at 1.5 h: 100 umol/kg; for Percentage of dose in tissue: Table 6; for tissue uptake at 1.5 h: in vivo, read-out: Percentage of dose per gram
From the text: No standard curves were compiled for these tissues. The values given
represent concentrations generated using the LIVER analysis routine and
standard curve. Because this routine utilizes a control LIVER spectra for
background modeling, erroneous Iodine concentration values for these
tissues may result due to inappropriate background removal.

[4] = Urinary excretion after i.v. IOP or TFA-IOP in rats; assay type: in vivo; conditions: rat
[5] = i.v., 90 min, Table 1, liver standard curve, may be erroneous

CCC(Cc1c(I)cc(I)c(NC(=O)C(F)(F)F)c1I)C(=O)O (centres unmarked) [TFA-IOP, N-trifluoroacetyl-iopanoic acid]
umoles running total in bile ([1]; i.v., through 0-10 min): 1.36 UMOLES
umoles running total in bile ([1]; i.v., through 10-20 min): 3.48 UMOLES
umoles running total in bile ([1]; i.v., through 20-30 min): 6.09 UMOLES
umoles running total in bile ([1]; i.v., through 30-40 min): 8.42 UMOLES
umoles running total in bile ([1]; i.v., through 40-50 min): 10.75 UMOLES
umoles running total in bile ([1]; i.v., through 50-60 min): 13.13 UMOLES
umoles running total in bile ([1]; i.v., through 60-70 min): 14.60 UMOLES
umoles running total in bile ([1]; i.v., through 70-80 min): 16.00 UMOLES
umoles running total in bile ([1]; i.v., through 80-90 min): 17.21 UMOLES
umoles running total in bile ([1]; i.v., through period printed 10-0 min (pre-injection)): .13 UMOLES
rate of biliary excretion relative to IOP ([1]; i.v., vs IOP, FIG. 8): approximately twice
dose excreted at 10 min ([1]; Percentage of dose in bile sample, 0-10 min): 2.82%
dose excreted at 20 min ([1]; Percentage of dose in bile sample, 10-20 min): 4.88%
dose excreted at 0.5 h ([1]; Percentage of dose in bile sample, 20-30 min): 5.99%
dose excreted at 40 min ([1]; Percentage of dose in bile sample, 30-40 min): 5.37%
dose excreted at 50 min ([1]; Percentage of dose in bile sample, 40-50 min): 5.35%
dose excreted at 1 h ([1]; Percentage of dose in bile sample, 50-60 min): 5.48%
dose excreted at 70 min ([1]; Percentage of dose in bile sample, 60-70 min): 3.36%
dose excreted at 80 min ([1]; Percentage of dose in bile sample, 70-80 min): 3.24%
dose excreted at 1.5 h ([1]; Percentage of dose in bile sample, 80-90 min): 2.77%
dose excreted at 0 h ([1]; Percentage of dose in bile sample, period 10-0 min (pre-injection)): 0.31%
dose excreted at 10 min ([1]; Percentage of dose running total in bile, through 0-10 min): 3.12%
dose excreted at 20 min ([1]; Percentage of dose running total in bile, through 10-20 min): 8%
dose excreted at 0.5 h ([1]; Percentage of dose running total in bile, through 20-30 min): 14%
dose excreted at 40 min ([1]; Percentage of dose running total in bile, through 30-40 min): 19.4%
dose excreted at 50 min ([1]; Percentage of dose running total in bile, through 40-50 min): 24.7%
dose excreted at 1 h ([1]; Percentage of dose running total in bile, through 50-60 min): 30.2%
dose excreted at 70 min ([1]; Percentage of dose running total in bile, through 60-70 min): 33.6%
dose excreted at 80 min ([1]; Percentage of dose running total in bile, through 70-80 min): 36.8%
dose excreted at 1.5 h ([1]; Percentage of dose running total in bile, through 80-90 min): 39.6%
dose excreted at 0 h ([1]; Percentage of dose running total in bile, through period printed 10-0 min (pre-injection)): 0.31%
concentration at 10 min ([2]; plasma, iv, 100 umol/kg, 10 min): 863 µM
concentration at 20 min ([2]; plasma, iv, 100 umol/kg, 20 min): 604 µM
concentration at 0.5 h ([2]; plasma, iv, 100 umol/kg, 30 min): 573 µM
concentration at 40 min ([2]; plasma, iv, 100 umol/kg, 40 min): 510 µM
concentration at 50 min ([2]; plasma, iv, 100 umol/kg, 50 min): 469 µM
concentration at 1 h ([2]; plasma, iv, 100 umol/kg, 60 min): 415 µM
concentration at 70 min ([2]; plasma, iv, 100 umol/kg, 70 min): 374 µM
concentration at 80 min ([2]; plasma, iv, 100 umol/kg, 80 min): 403 µM
concentration at 1.5 h ([2]; plasma, iv, 100 umol/kg, 90 min): 360 µM
Plasma concentration ([2]; 0 min): 0 nM
concentration at 1.5 h ([3]; heart, i.v., 90 min, liver standard curve used, may be erroneous, read-out: Heart concentration): 243 µM
% of dose in kidney ([3]; i.v., 90 min, Table 1): 0.34%
% of dose in liver ([3]; i.v., 90 min, Table 1): 6.04%
% of dose in heart [3, 5]: 0.72%
% of dose in lower GI [3, 5]: 0.63%
% of dose in lung [3, 5]: 0.83%
% of dose in spleen [3, 5]: 0.24%
% of dose in upper GI [3, 5]: 0.41%
Percentage of dose per kg b.wt. ([3]; i.v., 90 min, heart): 1.66 PERCENTAGE OF DOSE per kg b.wt
uMoles in tissue ([3]; i.v., 90 min, heart): .31 µmol
uMoles per gram tissue ([3]; i.v., 90 min, heart): .24 uMOLES per gram
uMoles per kg ([3]; i.v., 90 min, heart): 242.85 uMOLES per kg
Percentage of dose in tissue ([3]; i.v., 90 min, heart): .72 PERCENTAGE OF DOSE
Percentage of dose per kg b.wt. ([3]; i.v., 90 min, kidney): .78 PERCENTAGE OF DOSE per kg b.wt
uMoles in tissue ([3]; i.v., 90 min, kidney): .15 µmol
uMoles per gram tissue ([3]; i.v., 90 min, kidney): .06 uMOLES per gram
uMoles per kg ([3]; i.v., 90 min, kidney): 57.84 uMOLES per kg
Percentage of dose in tissue ([3]; i.v., 90 min, kidney): .34 PERCENTAGE OF DOSE
Percentage of dose per kg b.wt. ([3]; i.v., 90 min, liver): 13.88 PERCENTAGE OF DOSE per kg b.wt
uMoles in tissue ([3]; i.v., 90 min, liver): 2.63 µmol
uMoles per gram tissue ([3]; i.v., 90 min, liver): .20 uMOLES per gram
uMoles per kg ([3]; i.v., 90 min, liver): 201.73 uMOLES per kg
Percentage of dose in tissue ([3]; i.v., 90 min, liver): 6.04 PERCENTAGE OF DOSE
Percentage of dose per kg b.wt. ([3]; i.v., 90 min, lower GI): 1.45 PERCENTAGE OF DOSE per kg b.wt
uMoles in tissue ([3]; i.v., 90 min, lower GI): .27 µmol
uMoles per gram tissue ([3]; i.v., 90 min, lower GI): .18 uMOLES per gram
uMoles per kg ([3]; i.v., 90 min, lower GI): 178.09 uMOLES per kg
Percentage of dose in tissue ([3]; i.v., 90 min, lower GI): .63 PERCENTAGE OF DOSE
Percentage of dose per kg b.wt. ([3]; i.v., 90 min, lung): 1.91 PERCENTAGE OF DOSE per kg b.wt
uMoles in tissue ([3]; i.v., 90 min, lung): .36 µmol
uMoles per gram tissue ([3]; i.v., 90 min, lung): .28 uMOLES per gram
uMoles per kg ([3]; i.v., 90 min, lung): 277.64 uMOLES per kg
Percentage of dose in tissue ([3]; i.v., 90 min, lung): .83 PERCENTAGE OF DOSE
Percentage of dose per kg b.wt. ([3]; i.v., 90 min, spleen): .55 PERCENTAGE OF DOSE per kg b.wt
uMoles in tissue ([3]; i.v., 90 min, spleen): .10 µmol
uMoles per gram tissue ([3]; i.v., 90 min, spleen): .16 uMOLES per gram
uMoles per kg ([3]; i.v., 90 min, spleen): 164.06 uMOLES per kg
Percentage of dose in tissue ([3]; i.v., 90 min, spleen): .24 PERCENTAGE OF DOSE
Percentage of dose per kg b.wt. ([3]; i.v., 90 min, upper GI): .94 PERCENTAGE OF DOSE per kg b.wt
uMoles in tissue ([3]; i.v., 90 min, upper GI): .18 µmol
uMoles per gram tissue ([3]; i.v., 90 min, upper GI): .14 uMOLES per gram
uMoles per kg ([3]; i.v., 90 min, upper GI): 140.23 uMOLES per kg
Percentage of dose in tissue ([3]; i.v., 90 min, upper GI): .41 PERCENTAGE OF DOSE
tissue uptake at 1.5 h ([3]; 90 min, heart): 0.56 %ID/g
tissue uptake at 1.5 h ([3]; 90 min, kidney): 0.13 %ID/g
tissue uptake at 1.5 h ([3]; 90 min, liver): 0.46 %ID/g
tissue uptake at 1.5 h ([3]; 90 min, lower GI): 0.41 %ID/g
tissue uptake at 1.5 h ([3]; 90 min, lung): 0.64 %ID/g
tissue uptake at 1.5 h ([3]; 90 min, spleen): 0.38 %ID/g
tissue uptake at 1.5 h ([3]; 90 min, upper GI): 0.32 %ID/g
concentration at 1.5 h ([3]; kidney, i.v., 90 min post injection, heading: kidney concentration, read-out: kidney concentration): 57.8 µM
concentration at 1.5 h ([3]; kidney, i.v., 90 min post injection, read-out: Kidney concentration): 57.8 µM
concentration at 1.5 h ([3]; liver, i.v., 90 min post injection, read-out: Liver concentration): 202 µM
concentration at 1.5 h ([3]; liver, i.v., 90 min post injection, read-out: liver concentration): 202 µM
concentration at 1.5 h ([3]; lower gi, i.v., 90 min, liver standard curve used, may be erroneous, read-out: Lower GI concentration): 178 µM
concentration at 1.5 h ([3]; lung, i.v., 90 min, liver standard curve used, may be erroneous, read-out: Lung concentration): 278 µM
concentration at 1.5 h ([3]; spleen, i.v., 90 min, liver standard curve used, may be erroneous, read-out: Spleen concentration): 164 µM
concentration at 1.5 h ([3]; upper gi, i.v., 90 min, liver standard curve used, may be erroneous, read-out: Upper GI concentration): 140 µM
Urine concentration ([4]; 0-20 min): 0 µM
Urine concentration ([4]; 20-40 min): 0 µM
